Measured values reported in patent US7390462B2, “Ratiometric fluorescent pH sensor for non-invasive monitoring” (The University of Maryland Baltimore County, priority 2002, dated 2008).
Like-named read-outs stand apart in the source and are kept apart here.

Assays:
physchem = type: physicochemical
Experimental: Fluorescence measurements were recorded with a Varian Cary Eclipse fluorescence spectrophotometer. A solid sample/cuvette holder designed for front-face measurements was used to measure sensor patches that were fixed to the inside front wall of a PMMA disposable cuvette. Excitation light was fixed at an angle of incidence of 30°. Solutions were measured in regular 90° configuration. Cuvettes containing sensor patches were equilibrated in buffered saline solutions ranging in pH from 5 to 10. Uncorrected excitation and emission spectra were recorded for each sample. For comparison, solutions of DHDS and HPTS were also prepared and tested at the same pH values.
FIG. 3 depicts the calibration curves of excitation intensity ratio versus pH for DHDS solution, HPTS solution and the immobilized HPDS. Sensors comprising HDPS-PEG layers were calibrated in buffered saline solutions that ranged in pH from 5 to 10. In each case, the appropriate buffering species, i.e., phosphate, tris or bicarbonate, was at 10 mM and the desired ionic strength, e.g., 20, 150 or 300 mM, was made up with sodium chloride salt. Cuvettes containing sensor patches were equilibrated in each solution. For comparison 1 μM solutions of DHDS and HPTS also were prepared and tested over the same pH range.
Calibration curves for HPTS and MA-HPDS were fit to the following expression (25) describing intensity ratio (R) of monoprotic indicator dyes as a function of pH: R=([H^+]Rmax+ka,appRmin)/ka,app+[H^+] (1) where ka,app is the apparent dissociation constant of the immobilized dye. A least-squares linear regression was used to determine the parameters Rmin, Rmax and ka,app. The pka,app of the immobilized dye was calculated to be 7.61±0.05 for these conditions. This is in good agreement with the pka,app of HPTS in solution, which was calculated to be 7.72±0.02 under the same conditions.
The modified dye is sensitive over the same range as HPTS. The calibration curve for DHDS was fit to an expression similar to that for monoprotic acids, but for diprotic acids. The second hydroxyl group causes DHD to be sensitive over an extended range with two dissociation constants calculated to be pka1,app=7.03±0.02 and pka1,app=9.05±0.02 under these conditions.

[1] = cited from earlier work; for pKa: literature value
[2] = literature (11); cited from earlier work

Structure (SMILES) | pKa (physchem) | pKa [1] | also measured
O=S(=O)([O-])c1cc(S(=O)(=O)[O-])c2ccc3c(O)cc(O)c4ccc1c2c43.[Na+].[Na+] [DHDS, 6,8-dihydroxy-1,3-pyrenedisulfonic acid disodium salt] |  |  | pka1,app (first dissociation constant) (physchem): 7.03±0.02; pka1,app (second printed dissociation constant) (physchem): 9.05±0.02; second pKa ([1]; literature value (9)): approximately 8.5
O=S(=O)([O-])c1cc(O)c2ccc3c(S(=O)(=O)[O-])cc(S(=O)(=O)[O-])c4ccc1c2c34.[Na+].[Na+].[Na+] [HPTS, 8-hydroxy-1,3,6-pyrene trisulphonic acid trisodium salt] | 7.72 ± 0.02 | approximately 7.3 | toxicity [2]: low toxicity
C=C(C)C(=O)Oc1cc(O)c2ccc3c(S(=O)(=O)O)cc(S(=O)(=O)O)c4ccc1c2c34 [MA-HPDS, 6-methacryloyl-8-hydroxy-1,3-pyrene disulfonic acid] | 7.61 ± 0.05 |  | 
O=C1OC2(c3cc(Cl)c(O)cc3Oc3cc(O)c(Cl)cc32)c2ccccc21 [dichlorofluorescein] |  | ~4 | 
